How the values were obtained:
[1] = system: Spodoptera frugiperda; assay: Spodoptera frugiperda spray test (SPODFR); assay type: in vivo; settings: application rate 100 g/ha; maize leaf discs; after 7 days
Protocol: Spodoptera frugiperda—Spray Test (SPODFR)
Solvent: 78.0 parts by weight of acetone • • 1.5 parts by weight of dimethylformamide Emulsifier: alkylaryl polyglycol ether
(§1) To produce a suitable preparation of active compound, 1 part by weight of active compound is dissolved using the specified parts by weight of solvent and made up with water containing an emulsifier concentration of 1000 ppm until the desired concentration is attained. To produce further test concentrations, the preparation is diluted with emulsifier-containing water.
Leaf discs of maize (Zea mays) are sprayed with an active compound preparation of the desired concentration and, after drying, populated with caterpillars of the armyworm (Spodoptera frugiperda).
After 7 days, efficacy in % is determined. 100% means that all the caterpillars have been killed; 0% means that no caterpillars have been killed.

[2] = system: Tetranychus urticae; assay: Tetranychus urticae spray test, OP-resistant (TETRUR); assay type: in vivo; settings: application rate 100 g/ha; bean leaf discs; after 6 days
Protocol: Tetranychus urticae—Spray Test, OP-Resistant (TETRUR) Solvent: 78.0 parts by weight of acetone • • 1.5 parts by weight of dimethylformamide Emulsifier: alkylaryl polyglycol ether
as §1
Discs of bean leaves (Phaseolus vulgaris) infested by all stages of the greenhouse red spider mite (Tetranychus urticae) are sprayed with an active ingredient formulation of the desired concentration.
After 6 days, efficacy in % is determined. 100% means that all the spider mites have been killed; 0% means that no spider mites have been killed.

[3] = system: Lucilia cuprina; assay: Lucilia cuprina test (LUCICU); assay type: in vivo; settings: application rate 20 ppm; L1 larvae; after 2 days
Protocol: Lucilia cuprina-Test (LUCICU) Solvent: dimethyl sulphoxide
(§2) To produce a suitable preparation of active compound, 10 mg of active compound are mixed with 0.5 ml of dimethyl sulphoxide, and the concentrate is diluted with water to the desired concentration.
About 20 L1 larvae of the Australian sheep blowfly (Lucilia cuprina) are transferred into a test vessel containing minced horsemeat and the active compound preparation of the desired concentration.
After 2 days, the kill in % is determined. 100% means that all the larvae have been killed; 0% means that no larvae have been killed.

[4] = system: Ctenocephalides felis; assay: Ctenocephalides felis in vitro contact test; assay type: in vivo; settings: application rate 5 μg/cm^2; adult cat fleas; after 48 h
Protocol: Ctenocephalides felis—In Vitro Contact Test
(§3) For the coating of the test tubes, 9 mg of active compound are first dissolved in 1 ml of acetone p.a. and then diluted to the desired concentration with acetone p.a. 250 μl of the solution are distributed homogeneously on the inner walls and the base of a 25 ml test tube by turning and rocking on an orbital shaker (rocking rotation at 30 rpm for 2 h). With 900 ppm active compound solution and internal surface 44.7 cm^2, given homogeneous distribution, an area-based dose of 5 μg/cm^2 is achieved.
After the solvent has evaporated off, the tubes are populated with 5-10 adult cat fleas (Ctenocephalides felis), sealed with a perforated plastic lid and incubated in a horizontal position at room temperature and ambient humidity. After 48 h, efficacy is determined. To this end, the test tubes are stood upright and the fleas are knocked to the base of the tube. Fleas which remain motionless at the base or move in an uncoordinated manner are considered to be dead or moribund.
100% efficacy means that all the fleas were dead or moribund. 0% efficacy means that no fleas were harmed.

[5] = system: Phaedon cochleariae; assay: Phaedon cochleariae spray test (PHAECO); assay type: in vivo; settings: application rate 100 g/ha; Chinese cabbage leaf discs; after 7 days
Protocol: Phaedon cochleariae—Spray Test (PHAECO) Solvent: 78.0 parts by weight of acetone • • 1.5 parts by weight of dimethylformamide Emulsifier: alkylaryl polyglycol ether
as §1
After 7 days, efficacy in % is determined. 100% means that all the beetle larvae have been killed; 0% means that no beetle larvae have been killed.

[6] = log P by HPLC on reversed-phase column (C18), EEC Directive 79/831 Annex V.A8; assay type: physicochemical
Protocol: ^a) Unless indicated otherwise, the following method was used to determine the log P values and masses: The determination of the given log P values was carried out in accordance with EEC Directive 79/831 Annex V.A8 by HPLC (High Performance Liquid Chromatography) on a reversed-phase column (C18). Agilent 1100 LC system; 50*4.6 Zorbax Eclipse Plus C18 1.8 micron; mobile phase A: acetonitrile (0.1% formic acid); mobile phase B: water (0.09% formic acid); linear gradient from 10% acetonitrile to 95% acetonitrile in 4.25 min, then 95% acetonitrile for a further 1.25 min; oven temperature 55° C.; flow rate: 2.0 ml/min. Mass detection is effected by means of an Agilend MSD system.

[7] = system: Rhipicephalus sanguineus; assay: Rhipicephalus sanguineus in vitro contact test; assay type: in vivo; settings: application rate 5 μg/cm^2; adult dog ticks; after 48 h
Protocol: Rhipicephalus sanguineus—In Vitro Contact Tests
as §3
After the solvent has evaporated off, the tubes are populated with 5-10 adult dog ticks (Rhipicephalus sanguineus), sealed with a perforated plastic lid and incubated in a horizontal position in the dark at room temperature and ambient humidity. After 48 h, efficacy is determined. To this end, the ticks are knocked to the floor of the tube and incubated on a hotplate at 45-50° C. for not more than 5 min. Ticks which remain motionless on the floor or move in such an uncoordinated manner that they are unable to deliberately avoid the heat by climbing upwards are considered to be dead or moribund.
An efficacy of 100% means that all the ticks were dead or moribund. 0% efficacy means that none of the ticks had been harmed.

[8] = system: Myzus persicae; assay: Myzus persicae spray test (MYZUPE); assay type: in vivo; settings: application rate 100 g/ha; Chinese cabbage leaf discs; after 6 days
Protocol: Myzus persicae—Spray Test (MYZUPE) Solvent: 78 parts by weight of acetone • • 1.5 parts by weight of dimethylformamide Emulsifier: alkylaryl polyglycol ether
as §1
Discs of Chinese cabbage leaves (Brassica pekinensis) infested by all stages of the green peach aphid (Myzus persicae) are sprayed with an active compound preparation of the desired concentration.
After 6 days, efficacy in % is determined. 100% means that all the aphids have been killed; 0% means that no aphids have been killed.

[9] = system: Musca domestica; assay: Musca domestica test (MUSCDO); assay type: in vivo; settings: application rate 20 ppm; adult houseflies; after 2 days
Protocol: Musca domestica-Test (MUSCDO) Solvent: dimethyl sulphoxide
as §2
Vessels containing a sponge treated with sugar solution and the active compound preparation of the desired concentration are populated with 10 adult houseflies (Musca domestica).
After 2 days, the kill in % is determined. 100% means that all of the flies have been killed; 0% means that none of the flies have been killed.

[10] = system: Amblyomma hebraeum; assay: Amblyomma hebaraeum test (AMBYHE), tick nymph immersion; assay type: in vivo; settings: application rate 20 ppm; tick nymphs; after 42 days
Protocol: Amblyomma hebaraeum Test (AMBYHE) Solvent: dimethyl sulphoxide
as §2
Tick nymphs (Amblyomma hebraeum) are placed into perforated plastic beakers and immersed in the desired concentration for one minute. The ticks are transferred on filter paper into a Petri dish and stored in a climate-controlled cabinet.
After 42 days, the kill in % is determined. 100% means that all of the ticks have been killed; 0% means that none of the ticks have been killed.

Substance: N-{2-fluoro-5-[2′-methyl-5′-(pentafluoroethyl)-4′-(trifluoromethyl)-2′H-1,3′-bipyrazol-4-yl]benzyl}propanamide [Ic-1]
- efficacy [1]: 100%
- efficacy [2]: 100%
- efficacy (kill) [3]: 100%
- efficacy [4]: 100%
- efficacy [5]: 100%
- log P [6]: 3.83
- efficacy [7]: 100%
- efficacy [8]: 90%
- efficacy (kill) [9]: 100%
- efficacy (kill) [10]: 100%
